One series addresses T1, sigma-2 receptor (σ2R) (Rattus norvegicus, UniProt Q5U3Y7).
T1 construct: The thawed membrane preparation of rat liver was incubated; from tissue; host or cells: Sprague-Dawley rat liver membranes
T1 sequence (Q5U3Y7 1-176): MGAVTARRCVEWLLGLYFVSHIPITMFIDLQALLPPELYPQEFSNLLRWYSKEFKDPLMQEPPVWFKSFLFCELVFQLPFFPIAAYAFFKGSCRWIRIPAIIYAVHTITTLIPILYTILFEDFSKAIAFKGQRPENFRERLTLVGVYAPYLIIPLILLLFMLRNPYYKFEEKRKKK
The experiment in a line: σ2R radioligand binding ([3H]DTG). The settings on record: read-out: σ2R Ki [nM] x̄ [CI 95%]; mean [CI 95%].

Series [1] deals with mice. The experiment in a line: motor coordination in the rotarod test. The series is classed as in vivo. The settings on record: 15 mg/kg i.p.; 6, 18 and 24 rpm. An excerpt: The neurotoxicity of the new compounds can result in impaired motor functions of the experimental animals, which may subsequently cause false interpretation of the results of in vivo tests. Understandably, neurotoxicity is also the frequent reason for eliminating the tested compound from further studies. To minimize that risk, we investigated the influence of our lead structures on motor coordination in the rotarod test, which is the classical test used for assessing motor coordination and balance in rodents. It provides a quick and simple estimation of neuromuscular coordination. […] The time spent on the rotarod apparatus was 60 s for each control mouse.
The test was carried out on the semiautomatic rotarod apparatus (Rotarod apparatus Panlab/Harvard Apparatus, LE 8200, Spain) according to the method previously described in the literature.[85] The mice were trained for 3 days on the rod rotating at a constant speed of 18 rotations per minute (rpm). During each training session, the animals were placed on the rod for 3 min with an unlimited number of trials. On the test day (24 h after the final training trial), 30 min before the rotarod test, the mice were pretreated (i.p.) with the test compound (15 mg/kg). Then, the animals were tested on the rotarod revolving at 6, 18, and then 24 rpm. Motor impairments, defined as the inability to remain on the rotating rod for 1 min, were measured at each speed.
In general terms: Falling from the rotarod earlier than controls is read as motor impairment.

For series [2], the target named is T2, human histamine H1 receptor (hH1R) (Homo sapiens, UniProt P35367).
T2 construct: SP (signal peptide) (N); FLAG (N); expressed in transfected cells
T2 sequence (P35367 whole entry): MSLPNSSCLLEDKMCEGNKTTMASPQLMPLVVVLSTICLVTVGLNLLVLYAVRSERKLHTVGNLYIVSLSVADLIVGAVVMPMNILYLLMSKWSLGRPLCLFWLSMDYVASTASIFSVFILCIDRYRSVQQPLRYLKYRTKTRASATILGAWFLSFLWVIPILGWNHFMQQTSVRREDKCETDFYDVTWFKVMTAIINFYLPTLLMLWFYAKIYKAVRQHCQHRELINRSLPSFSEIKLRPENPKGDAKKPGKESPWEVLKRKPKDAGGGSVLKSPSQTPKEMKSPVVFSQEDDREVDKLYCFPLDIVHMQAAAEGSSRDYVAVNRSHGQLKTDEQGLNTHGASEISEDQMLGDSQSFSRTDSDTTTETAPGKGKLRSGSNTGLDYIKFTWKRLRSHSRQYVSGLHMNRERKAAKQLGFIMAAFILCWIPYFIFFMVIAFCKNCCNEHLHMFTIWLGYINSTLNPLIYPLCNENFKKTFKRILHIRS
The experiment in a line: hH1R radioligand binding ([3H]mepyramine). The settings on record: read-out: hH1R (Ki [nM] x̅ [CI 95%]); HEK293T cells; n = 3, triplicate. As to the method: (§1) To check the selectivity profile of our lead structures, radioligand binding studies at other histamine receptor subtypes were carried out. […] Obtained results clearly indicate the high selectivity of the tested derivatives toward human H3R (Table 3).
(§2) Compounds (as oxalate salts) were tested in H3R in vitro binding studies using the methods described previously.[21]−[23] […] Radioligand binding experiments at the H1R, H2R, and H4R were performed as previously described in Rosier et al.[65] and Bartole et al.[66] […] Data represent mean values ± CI from three independent experiments, each performed in triplicate. The normalized competition binding curves were then fitted with a four-parameter logistic fit yielding IC50 values using the Prism 8.4.3 software (GraphPad, San Diego, CA). The Ki values were estimated from the Cheng–Prusoff equation.[69]

Series [3] has as its system mice. Kind of series: loperamide-induced antinociception (paw pressure, struggle response latency). The series is classed as in vivo, Female CD1 mice.
The next series has as its system CCI-exposed mice. Kind of series: CCI of the sciatic nerve, cold plate test. The series is classed as in vivo, male albino Swiss CD-1 mice. As to the method:
Behavioral assessment of 12 was performed 14 days after the sciatic nerve injury. Mice were randomly assigned to four treatment groups: vehicle-treated (i.p.) and 12-treated (5, 10, and 15 mg/kg, i.p.). Baseline measurements (basal) for all tests were performed before compound injections, and the results are presented as percentages of the maximal possible effect (% MPE). We observed a significant effect of the tested compound in the von Frey test at all tested time points (30 min: F(3, 26) = 12.38, p < 0,0001; 90 min: F(3, 26) = 12.65, p < 0.0001; 180 min: F(3, 26) = 6.464, p = 0.0020). […] We also observed a significant effect of treatment on the contralateral paw 90 min after injection (F(3, 26) = 5.741, p = 0.0037).
The model of chronic constriction injury (CCI) to the sciatic nerve was established according to Bennett and Xie.[94] The surgical method was performed under isoflurate anesthesia (2% isoflurane in 100% oxygen with a flow of 1.5 L/min).[95] Below the right hipbone, a small incision was performed, and three ligatures (4/0 silk) around the sciatic nerve were made (with 1 mm spacing) until a brief twitch in the respective hind limb was observed. All mice that underwent the CCI procedure developed hypersensitivity to mechanical and thermal stimuli. Behavioral tests were performed at day 14 after injury. Compound 12 was dissolved in 10% DMSO/10% (2-hydroxypropyl)-β-cyclodextrin/water and administered i.p. at doses 5, 10, and 15 mg/kg (injection volume 10 mL/kg of body weight). The control group received the vehicle (10% DMSO/10% (2-hydroxypropyl)-β-cyclodextrin/water).
Behavioral experiments were performed between 8:00 a.m. and 2:00 p.m. Across the experiments, we compared vehicle-treated mice with 12-treated animals. […]
Sensitivity to noxious thermal stimuli was assessed with the cold plate test (Cold/Hot Plate Analgesia Meter, Columbus Instruments) as previously described.[95] […] The mice were placed on the cold plate, and the time until lifting of the injured paw was recorded.

For series [4], the target named is T3, human histamine H4 receptor (hH4R) (Homo sapiens, UniProt Q9H3N8).
T3 construct: SP (signal peptide) (N); FLAG (N); expressed in transfected cells
T3 sequence (Q9H3N8 whole entry): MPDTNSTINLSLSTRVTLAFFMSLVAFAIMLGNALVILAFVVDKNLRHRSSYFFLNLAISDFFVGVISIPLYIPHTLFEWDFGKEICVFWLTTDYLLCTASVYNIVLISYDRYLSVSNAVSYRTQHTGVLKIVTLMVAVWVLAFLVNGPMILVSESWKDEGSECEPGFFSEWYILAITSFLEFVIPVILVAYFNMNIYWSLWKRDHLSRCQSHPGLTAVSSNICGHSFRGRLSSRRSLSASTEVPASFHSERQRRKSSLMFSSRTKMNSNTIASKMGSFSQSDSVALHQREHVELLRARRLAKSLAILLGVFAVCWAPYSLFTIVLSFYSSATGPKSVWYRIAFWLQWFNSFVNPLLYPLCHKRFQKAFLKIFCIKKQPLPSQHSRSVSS
The experiment in a line: hH4R radioligand binding ([3H]UR-PI294). As to conditions: read-out: hH4R (Ki [nM] x̅ [CI 95%]); HEK293T cells; n = 3, triplicate. As to the method:
as §1, §2

Series [5] in a line: parallel artificial membrane permeability assay (PAMPA). The series is classed as in vitro ADME. The settings on record: 100 μM in PBS pH 7.4, RT, read-out: Pe (permeability coefficient). (PAMPA measures passive passage across an artificial lipid membrane.)
The target in series [6] is T4, human histamine H2 receptor (hH2R) (Homo sapiens, UniProt P25021).
T4 construct: SP (signal peptide) (N); FLAG (N); expressed in transfected cells
T4 sequence (P25021 whole entry): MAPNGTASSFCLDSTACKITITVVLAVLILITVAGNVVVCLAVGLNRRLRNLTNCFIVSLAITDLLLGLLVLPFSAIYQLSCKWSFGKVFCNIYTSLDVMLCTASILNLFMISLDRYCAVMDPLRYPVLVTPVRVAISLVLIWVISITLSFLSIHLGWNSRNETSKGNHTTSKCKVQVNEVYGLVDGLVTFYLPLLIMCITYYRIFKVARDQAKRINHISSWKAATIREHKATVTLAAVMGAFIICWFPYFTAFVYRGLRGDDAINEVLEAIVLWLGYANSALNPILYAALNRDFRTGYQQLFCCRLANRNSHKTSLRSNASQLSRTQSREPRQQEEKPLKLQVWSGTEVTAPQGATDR
Kind of series: hH2R radioligand binding ([3H]UR-DE257). The settings on record: HEK293T cells; n = 3, triplicate. As to the method:
as §1, §2

Series [7] addresses T5, human recombinant histamine H3R (Homo sapiens, UniProt Q9Y5N1).
T5 construct: expressed in transfected cells
The experiment in a line: hH3R radioligand binding ([3H]Nα-methylhistamine depletion assay). As to conditions: read-out: hH3R Ki [nM] x̄ [CI 95%]; mean [CI 95%]; HEK-293 cells.

Series [8] in a line: serum metabolic stability.

Structures can show the parent of a compound that is named as a salt.

T5 sequence (Q9Y5N1 whole entry): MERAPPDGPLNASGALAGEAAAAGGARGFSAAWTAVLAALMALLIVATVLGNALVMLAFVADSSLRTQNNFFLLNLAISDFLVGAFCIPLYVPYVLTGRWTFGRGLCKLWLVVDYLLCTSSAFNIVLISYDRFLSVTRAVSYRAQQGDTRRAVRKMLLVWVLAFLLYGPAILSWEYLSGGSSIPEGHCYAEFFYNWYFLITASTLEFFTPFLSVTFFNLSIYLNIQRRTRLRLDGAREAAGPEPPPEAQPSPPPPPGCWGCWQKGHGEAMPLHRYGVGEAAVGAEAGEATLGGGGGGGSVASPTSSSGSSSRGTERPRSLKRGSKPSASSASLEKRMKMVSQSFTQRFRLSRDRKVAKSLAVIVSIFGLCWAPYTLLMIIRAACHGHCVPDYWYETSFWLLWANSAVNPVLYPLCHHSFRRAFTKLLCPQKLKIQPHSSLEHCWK

Broadly, the Ki is the dissociation constant of the complex between target and ligand, obtained from inhibition or displacement. As a reminder, the half-life is how long it takes for the measured level to halve. Regarding `N#Cc1ccc(-c2ccc(OCCCN3CCC(c4ccncc4)CC3)cc2)cc1` [Compound 12, 4′-(3-(4-(Pyridin-4-yl)piperidin-1-yl)propoxy)-[1,1′-biphenyl]-4-carbonitrile Oxalate], the Ki on sigma-2 receptor (σ2R) was 10 nM; in series [2] it was 653 nM; in series [4], > 10000 nM; in series [6], > 10000 nM; in series [7] it was 7.7 nM. The “influence on motor coordination, time on rotarod” value with mice [1] is “slightly affected motor coordination, but the effect was not statistically significant”. Besides, the “in vivo σ1 receptor functional profile” value in the series with mice [3] (concluded from PRE-084 reversal) is recorded as “σ1 receptor antagonists”. Moreover, the “effect on loperamide-induced antinociception” value with mice [3] (i.pl. with loperamide 4 mg/kg s.c., injected paw) is on record as “dose-dependently (12.5–25 μg) increased the antinociceptive effect of loperamide at the injected paw”. Besides, in the series on mice [3] (i.pl., S1RA 100 μg, 12 25 μg, 450 g pressure), the “effect alone on struggle response latency” value is “did not have any effect per se”. The “analgesic effect, cold plate test” value is “analgesic effects of 12 single injection were observed at 35 min for all tested doses” with CCI-exposed mice (35 min after i.p. injection, 5, 10, 15 mg/kg); “antihyperalgesic effect was also observed 95 min after injection” with CCI-exposed mice (95 min after i.p. injection, 5, 10, 15 mg/kg); “significant only for doses 5 (p = 0.0482) and 10 mg/kg (p < 0.0001)” in the series with CCI-exposed mice (185 min after i.p. injection). Moreover, the Papp at 5 h, 100 µM in series [5] amounted to 12 ×10⁻⁶ cm/s. In addition, in [8], the serum stability assessment result was “moderately stable ligand”. Further, the half-life at 24 h in series [8] (serum (made from plasma by clotting with calcium chloride)) is 7.7 ± 1.4 h.

The values are drawn from paper PMC10388327, “Dual Piperidine-Based Histamine H3 and Sigma-1 Receptor Ligands in the Treatment of Nociceptive and Neuropathic Pain” (Journal of Medicinal Chemistry, 2023).
